# Measured values published in patent US20050287600A1, “Method for screening for agents preventing aggregation of potentially amyloidogenic proteins” (priority 2002, published 2005).
# Target: T1, human ataxin-3 (Q36) (Homo sapiens, UniProt P54252, INS305QQQQQQQQQQQQQQQQQQQQQQQQQQ)
# T1 construct: glutathione S-transferase (GST), PreScission Protease site (N, cleaved yes); made in house; host or cells: Escherichia coli BL21 codon plus RIL (plasmid pGEX6P-1)
# Assay: Heat-induced amyloid fibre formation / aggregation screening assay
# Format: biochemical
# Settings: 10 microM Congo red; ataxin-3 (Q36) about 0.1 mg/ml in 10 mM sodium phosphate, pH 7.0, incubated at growing temperatures
# Description: The screening procedure encompasses a) mixing the protein of interest with the compound to be assayed for its ability to prevent aggregation b) gradually increasing the temperature c) detecting the appearance of amyloid fibres by turbidimetric measurements, and/or by visual inspection of the mixture, and/or by determining its protein content before and after spinning down the aggregated protein. In the control sample, no compound is added so heating results in amyloid fibre formation and ensuing protein precipitation and clouding of the solution. In contrast, a compound capable of preventing aggregation also prevents or reduces clouding, along with protein precipitation on centrifugation. Protein concentration is typically about 0.1 mg per ml. Human ataxin-3 (Q36) was dissolved in 10 mM sodium phosphate, pH 7.0 at a final concentration of about 0.1 mg/ml and incubated at growing temperatures. […] Congo red is a well-known antiamyloidogenic compound. On incubating human ataxin-3 (Q36) in the presence of 10 microM Congo red and otherwise under the conditions depicted in example 3, protein aggregation phenomena observed in the absence of the dye were prevented.
# T1 sequence (P54252 with tags, fused parts or gaps with the stated changes): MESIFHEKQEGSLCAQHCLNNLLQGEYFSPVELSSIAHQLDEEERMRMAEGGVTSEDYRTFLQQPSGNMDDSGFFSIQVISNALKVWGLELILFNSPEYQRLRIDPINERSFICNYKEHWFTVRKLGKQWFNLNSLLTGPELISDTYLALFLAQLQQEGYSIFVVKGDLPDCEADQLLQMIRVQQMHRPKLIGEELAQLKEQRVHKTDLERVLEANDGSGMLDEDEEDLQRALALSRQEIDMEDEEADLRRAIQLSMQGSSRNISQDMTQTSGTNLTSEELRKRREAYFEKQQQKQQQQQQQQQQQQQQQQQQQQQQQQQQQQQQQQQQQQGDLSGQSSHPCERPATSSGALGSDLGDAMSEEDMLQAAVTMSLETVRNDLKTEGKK
compound,measurement,value
Nc1c(/N=N/c2ccc(-c3ccc(/N=N/c4cc(S(=O)(=O)O)c5ccccc5c4N)cc3)cc2)cc(S(=O)(=O)O)c2ccccc12 [Congo red],protein aggregation (amyloid fibre formation) on heating,prevented
